Each structure is given as a SMILES string.

For this test, the target named is T1, hFAAH (Homo sapiens, UniProt O00519).
T1 construct: expressed in transfected cells; host or cells: HEK293-TRex (Invitrogen) stably transfected with hFAAH in the pcDNA5-Tet-off vector, or T84 human colon epithelial cells (endogenous hFAAH); used as a microsomal preparation
T1 sequence (O00519 1-579): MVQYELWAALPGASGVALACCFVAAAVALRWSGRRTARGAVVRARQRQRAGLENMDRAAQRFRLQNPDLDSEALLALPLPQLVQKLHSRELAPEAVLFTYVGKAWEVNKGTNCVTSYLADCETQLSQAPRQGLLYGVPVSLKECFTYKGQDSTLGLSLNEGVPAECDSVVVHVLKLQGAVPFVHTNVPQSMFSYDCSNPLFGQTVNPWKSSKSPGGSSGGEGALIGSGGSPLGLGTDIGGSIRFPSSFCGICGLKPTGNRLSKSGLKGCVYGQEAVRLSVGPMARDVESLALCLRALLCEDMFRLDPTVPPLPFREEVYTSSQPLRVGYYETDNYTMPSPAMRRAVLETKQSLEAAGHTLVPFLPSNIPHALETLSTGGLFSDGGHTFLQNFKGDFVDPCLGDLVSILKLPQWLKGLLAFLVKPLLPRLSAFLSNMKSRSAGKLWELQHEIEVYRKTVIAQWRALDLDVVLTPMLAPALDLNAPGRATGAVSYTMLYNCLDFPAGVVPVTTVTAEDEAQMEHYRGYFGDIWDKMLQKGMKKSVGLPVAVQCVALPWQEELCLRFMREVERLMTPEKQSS
The test is described as follows: Fluorimetric assay with hFAAH microsomes (enzymatic, fluorescence based). The note with it: compound at 1 uM, AA-AMC substrate. In kind it is biochemical. The procedure, abridged:
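Microsomes from T84 cells (endogenous hFAAH) or doxycycline-induced HEK293-TRex cells stably expressing hFAAH, 10 μg per well, in 50 mM HEPES pH 7.4, 1 mM EDTA, 1.4 mg/mL BSA with 2 μM AA-AMC. Kinetic fluorescence read (ex 355/em 460 nm, 275 cycles); activity as % inhibition, 7 concentrations in duplicate.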

As for `Cc1c(CN2Cc3ncnc(Nc4cnc5ccccc5c4)c3C2)cnn1C` [Compound 26, [6-(1,5-Dimethyl-1H-pyrazol-4-ylmethyl)-6,7-dihydro-5H-pyrrolo[3,4-d]pyrimidin-4-yl]-quinolin-3-yl-amine], the inhibition (usually the percentage by which the read-out fell short of the control) at 1 µM is > 25%. With `Cc1ccccc1CN1Cc2ncnc(Nc3cnc4ccccc4c3)c2C1` [Compound 92, [6-(2-Methyl-benzyl)-6,7-dihydro-5H-pyrrolo[3,4-d]pyrimidin-4-yl]-quinolin-3-yl-amine] the figure was > 75%; with `COc1ccccc1CN1Cc2ncnc(Nc3cnc4ccccc4c3)c2C1` [Compound 83, [6-(2-Methoxy-benzyl)-6,7-dihydro-5H-pyrrolo[3,4-d]pyrimidin-4-yl]-quinolin-3-yl-amine], > 75%. Take `COC(=O)c1cc(S(=O)(=O)N2Cc3ncnc(Nc4cnc5ccccc5c4)c3C2)oc1C` [Compound 62, 2-Methyl-5-[4-(quinolin-3-ylamino)-5,7-dihydro-pyrrolo[3,4-d]pyrimidine-6-sulfonyl]-furan-3-carboxylic acid methyl ester]: the inhibition at 1 µM was > 25%. With `Cc1ccsc1S(=O)(=O)N1Cc2ncnc(Nc3cnc4ccccc4c3)c2C1` [Compound 56, [6-(3-Methyl-thiophene-2-sulfonyl)-6,7-dihydro-5H-pyrrolo[3,4-d]pyrimidin-4-yl]-quinolin-3-yl-amine] the figure was > 25%; with `Cc1ncsc1CN1Cc2ncnc(Nc3cnc4ccccc4c3)c2C1` [Compound 66, [6-(4-Methyl-thiazol-5-ylmethyl)-6,7-dihydro-5H-pyrrolo[3,4-d]pyrimidin-4-yl]-quinolin-3-yl-amine], > 75%; with `CC(C)CCN1Cc2ncnc(Nc3cnc4ccccc4c3)c2C1` [Compound 9, [6-(3-Methyl-butyl)-6,7-dihydro-5H-pyrrolo[3,4-d]pyrimidin-4-yl]-quinolin-3-yl-amine], > 50%.

In the case of `FC(F)(F)CN1Cc2ncnc(Nc3cnc4ccccc4c3)c2C1` [Compound 30, Quinolin-3-yl-[6-(2,2,2-trifluoro-ethyl)-6,7-dihydro-5H-pyrrolo[3,4-d]pyrimidin-4-yl]-amine], the inhibition at 1 µM is < 25%. Then `Cc1cccc(CN2Cc3ncnc(Nc4cnc5ccccc5c4)c3C2)c1C` [Compound 87, [6-(2,3-Dimethyl-benzyl)-6,7-dihydro-5H-pyrrolo[3,4-d]pyrimidin-4-yl]-quinolin-3-yl-amine], with > 75%. Then `c1cc(CN2Cc3ncnc(Nc4cnc5ccccc5c4)c3C2)c2c(c1)OCO2` [Compound 103, (6-Benzo[1,3]dioxol-4-ylmethyl-6,7-dihydro-5H-pyrrolo[3,4-d]pyrimidin-4-yl)-quinolin-3-yl-amine], with > 75%.

Take `Cc1nc(C)c(S(=O)(=O)N2Cc3ncnc(Nc4cnc5ccccc5c4)c3C2)s1` [Compound 61, [6-(2,4-Dimethyl-thiazole-5-sulfonyl)-6,7-dihydro-5H-pyrrolo[3,4-d]pyrimidin-4-yl]-quinolin-3-yl-amine]: the inhibition at 1 µM is > 50%.

In the case of `Cn1nccc1S(=O)(=O)N1Cc2ncnc(Nc3cnc4ccccc4c3)c2C1` [Compound 60, [6-(2-Methyl-2H-pyrazole-3-sulfonyl)-6,7-dihydro-5H-pyrrolo[3,4-d]pyrimidin-4-yl]-quinolin-3-yl-amine], the inhibition at 1 µM is > 50%. With `c1ccc(CN2Cc3ncnc(Nc4cnc5ccccc5c4)c3C2)cc1` [Compound 1, (6-Benzyl-6,7-dihydro-5H-pyrrolo[3,4-d]pyrimidin-4-yl)-quinolin-3-yl-amine] the figure was > 75%; with `CCC(C)CN1Cc2ncnc(Nc3cnc4ccccc4c3)c2C1` (stereo not drawn) [Compound 8, [6-(2-Methyl-butyl)-6,7-dihydro-5H-pyrrolo[3,4-d]pyrimidin-4-yl]-quinolin-3-yl-amine], > 75%; with `CCCCCN1Cc2ncnc(Nc3cnc4ccccc4c3)c2C1` [Compound 10, (6-Pentyl-6,7-dihydro-5H-pyrrolo[3,4-d]pyrimidin-4-yl)-quinolin-3-yl-amine], > 50%. Then `c1ccc2ncc(Nc3ncnc4c3CN(C3CCCCC3)C4)cc2c1` [Compound 23, (6-Cyclohexyl-6,7-dihydro-5H-pyrrolo[3,4-d]pyrimidin-4-yl)-quinolin-3-yl-amine], with > 25%; and `CC(C)(C)CCN1Cc2ncnc(Nc3cnc4ccccc4c3)c2C1` [Compound 15, [6-(3,3-Dimethyl-butyl)-6,7-dihydro-5H-pyrrolo[3,4-d]pyrimidin-4-yl]-quinolin-3-yl-amine], with > 25%. Then `FC(F)(F)Oc1cccc(CN2Cc3ncnc(Nc4cnc5ccccc5c4)c3C2)c1` [Compound 104, Quinolin-3-yl-[6-(3-trifluoromethoxy-benzyl)-6,7-dihydro-5H-pyrrolo[3,4-d]pyrimidin-4-yl]-amine], with > 75%.

As for `FC(F)(F)c1ccccc1CN1Cc2ncnc(Nc3cnc4ccccc4c3)c2C1` [Compound 95, Quinolin-3-yl-[6-(2-trifluoromethyl-benzyl)-6,7-dihydro-5H-pyrrolo[3,4-d]pyrimidin-4-yl]-amine], the inhibition at 1 µM is > 75%. With `c1ccc2ncc(Nc3ncnc4c3CN(Cc3ccncc3)C4)cc2c1` [Compound 94, (6-Pyridin-4-ylmethyl-6,7-dihydro-5H-pyrrolo[3,4-d]pyrimidin-4-yl)-quinolin-3-yl-amine] the figure was > 75%. Then `Cn1nccc1CN1Cc2ncnc(Nc3cnc4ccccc4c3)c2C1` [Compound 24, [6-(2-Methyl-2H-pyrazol-3-ylmethyl)-6,7-dihydro-5H-pyrrolo[3,4-d]pyrimidin-4-yl]-quinolin-3-yl-amine], with > 25%. Then `c1ccc2ncc(Nc3ncnc4c3CN(CC3CCCC3)C4)cc2c1` [Compound 12, (6-Cyclopentylmethyl-6,7-dihydro-5H-pyrrolo[3,4-d]pyrimidin-4-yl)-quinolin-3-yl-amine], with > 75%; and `CCCOc1ccccc1CN1Cc2ncnc(Nc3cnc4ccccc4c3)c2C1` [Compound 108, [6-(2-Propoxy-benzyl)-6,7-dihydro-5H-pyrrolo[3,4-d]pyrimidin-4-yl]-quinolin-3-yl-amine], with > 50%; and `OCCCCN1Cc2ncnc(Nc3cnc4ccccc4c3)c2C1` [Compound 20, 4-[4-(Quinolin-3-ylamino)-5,7-dihydro-pyrrolo[3,4-d]pyrimidin-6-yl]-butan-1-ol], with < 25%.

Consider `CC(C1CCCC1)N1Cc2ncnc(Nc3cnc4ccccc4c3)c2C1` (stereo not drawn) [Compound 37, [6-(1-Cyclopentyl-ethyl)-6,7-dihydro-5H-pyrrolo[3,4-d]pyrimidin-4-yl]-quinolin-3-yl-amine], for which the inhibition at 1 µM is > 50%. Consider `O=S(=O)(c1ccc(-c2cnco2)s1)N1Cc2ncnc(Nc3cnc4ccccc4c3)c2C1` [Compound 55, [6-(5-Oxazol-5-yl-thiophene-2-sulfonyl)-6,7-dihydro-5H-pyrrolo[3,4-d]pyrimidin-4-yl]-quinolin-3-yl-amine], for which the inhibition at 1 µM was > 25%.

With `c1ccc2ncc(Nc3ncnc4c3CN(Cc3cccc5cc[nH]c35)C4)cc2c1` [Compound 110, [6-(1H-Indol-7-ylmethyl)-6,7-dihydro-5H-pyrrolo[3,4-d]pyrimidin-4-yl]-quinolin-3-yl-amine], the inhibition at 1 µM is > 75%.

With `CC(C1CCCCC1)N1Cc2ncnc(Nc3cnc4ccccc4c3)c2C1` (stereo not drawn) [Compound 38, [6-(1-Cyclohexyl-ethyl)-6,7-dihydro-5H-pyrrolo[3,4-d]pyrimidin-4-yl]-quinolin-3-yl-amine], the inhibition at 1 µM was > 75%. With `O=C(NC1CCCCC1)N1Cc2ncnc(Nc3cnc4ccccc4c3)c2C1` [Compound 47, 4-(Quinolin-3-ylamino)-5,7-dihydro-pyrrolo[3,4-d]pyrimidine-6-carboxylic acid cyclohexylamide] the figure was < 25%. With `O=C(CN1CCCCC1)N1Cc2ncnc(Nc3cnc4ccccc4c3)c2C1` [Compound 53, 2-Piperidin-1-yl-1-[4-(quinolin-3-ylamino)-5,7-dihydro-pyrrolo[3,4-d]pyrimidin-6-yl]-ethanone] the figure was < 25%. With `CC(CC(C)(C)C)N1Cc2ncnc(Nc3cnc4ccccc4c3)c2C1` (stereo not drawn) [Compound 39, Quinolin-3-yl-[6-(1,3,3-trimethyl-butyl)-6,7-dihydro-5H-pyrrolo[3,4-d]pyrimidin-4-yl]-amine], the inhibition at 1 µM was < 25%. For `CC(C)N1Cc2ncnc(Nc3cnc4ccccc4c3)c2C1` [Compound 34, (6-Isopropyl-6,7-dihydro-5H-pyrrolo[3,4-d]pyrimidin-4-yl)-quinolin-3-yl-amine], the inhibition at 1 µM was < 25%. Then `O=C(CN1CCCCCC1)N1Cc2ncnc(Nc3cnc4ccccc4c3)c2C1` [Compound 52, 2-Azepan-1-yl-1-[4-(quinolin-3-ylamino)-5,7-dihydro-pyrrolo[3,4-d]pyrimidin-6-yl]-ethanone], with < 25%.

Source of the values: patent US20110257208A1, “COMPOUNDS USEFUL AS FAAH MODULATORS AND USES THEREOF” (priority 2008, published 2011).
